Assay results published in ChEMBL document CHEMBL1201862, “PubChem BioAssay data set” (2004).
Values joined by “and” are separate entries in the source; they are usually repeats but may differ in a detail not shown here. Identical values can stand only once.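 Values below derive from 48-hour exposures of cells grown in 96-well plates, with endpoints linearly interpolated between the two concentrations bracketing the appropriate inhibition level. Here, GI50 denotes the concentration required for 50% inhibition of growth.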 Active and inactive are the calls of the source. Cut-off read from the data, not from the text of the source: active = GI50 up to about 1.1 µM and inactive = higher.

Experiments:
Assay in all cases: inhibition of tumour cell growth, NCI panel, 48 h
HOP-18 = system: HOP-18
M19-MEL = system: M19-MEL
DLD-1 = system: DLD-1
SNB-78 = system: SNB-78
KM-20L2 = system: KM-20L2
DMS-273 = system: DMS-273
XF498 = system: XF498
RXF 631 = system: RXF 631
DMS-114 = system: DMS-114

Measured: GI50

Cc1ccc(NC(=O)CCc2nnc3s/c(=C\C=C\c4ccccc4)c(=O)n23)cc1
inactive: HOP-18 90.2 µM | M19-MEL 67.5 µM | DLD-1 > 100 µM | SNB-78 > 71 µM | KM-20L2 > 100 µM | DMS-273 > 100 µM | XF498 > 100 µM | RXF 631 > 82.4 µM | DMS-114 > 100 µM

COc1cc(CC(C)N)ccc1O (centres undefined)
inactive: HOP-18 > 100 µM | DLD-1 > 100 µM | SNB-78 > 100 µM | KM-20L2 > 100 µM | DMS-273 > 100 µM | XF498 > 100 µM | RXF 631 > 100 µM | DMS-114 > 100 µM

CC(=O)OCC1OC(N2C(=O)C(=O)c3cc(C)ccc32)C(OC(C)=O)C(OC(C)=O)C1OC(C)=O (centres undefined)
inactive: HOP-18 > 100 µM | M19-MEL 50.7 µM | DLD-1 56 µM | SNB-78 > 100 µM | KM-20L2 60.5 µM | DMS-273 > 100 µM | DMS-114 > 100 µM

CC(C)(O)[C@@H]1CC[C@@]2(C)CCC[C@H](O)[C@H]2C1
inactive: HOP-18 > 100 µM | M19-MEL > 100 µM | DLD-1 > 100 µM | KM-20L2 > 100 µM | DMS-273 > 100 µM | XF498 > 100 µM | RXF 631 > 100 µM | DMS-114 > 100 µM

CCOC(=O)CCC1(C(=O)OC)CCCC1=O (centres undefined)
inactive: HOP-18 62.2 µM | M19-MEL > 100 µM | DLD-1 > 100 µM | SNB-78 > 100 µM | KM-20L2 > 100 µM | DMS-273 > 100 µM | XF498 > 100 µM | DMS-114 > 100 µM

Cc1c2c(c(C)c3c1[nH]c1ccccc13)CN(C)CC2
inactive: HOP-18 6.21 µM | M19-MEL 16.6 µM | DLD-1 34.4 µM | SNB-78 21.9 µM | KM-20L2 18.8 µM | DMS-273 16.7 µM | RXF 631 22.8 µM | DMS-114 15.1 µM

c1ccc(C2Nc3ccccc3C3OCCCC23)cc1 (centres undefined)
inactive: M19-MEL 42.6 µM | DLD-1 18.9 µM | SNB-78 23.9 µM | KM-20L2 18.4 µM | DMS-273 28.2 µM | XF498 56.5 µM | RXF 631 35.7 µM | DMS-114 21.1 µM

Cc1ccc(/C=N/NS(=O)(=O)c2ccccc2)c(C)c1
inactive: HOP-18 > 100 µM | M19-MEL > 100 µM | DLD-1 > 100 µM | SNB-78 > 100 µM | KM-20L2 > 100 µM | DMS-273 > 100 µM | XF498 > 100 µM | RXF 631 > 100 µM | DMS-114 > 100 µM

CCOC(=O)C1N(S(=O)(=O)c2ccc(C)cc2)CCC12C(c1ccc(OC)cc1)NC1CCCCC12 (centres undefined)
inactive: M19-MEL > 100 µM | DLD-1 > 100 µM | SNB-78 > 100 µM | KM-20L2 > 100 µM | DMS-273 > 100 µM | RXF 631 97.1 µM | DMS-114 > 100 µM

Cc1ccc(C(=O)OCC(C)C)cc1/N=N/N(C)C
inactive: M19-MEL 44 µM | DLD-1 45.5 µM | SNB-78 64.9 µM | KM-20L2 38.7 µM | DMS-273 45.5 µM

CCOC(=O)/C(=C/c1ccc(C(F)(F)F)cc1)N(CC)CC
inactive: HOP-18 12.5 µM | DLD-1 54.1 µM | SNB-78 81.8 µM | XF498 58.1 µM | RXF 631 > 100 µM | DMS-114 30.8 µM

Cc1cc(C)cc(NC(N)=S)c1
inactive: M19-MEL > 100 µM | DLD-1 > 100 µM | SNB-78 > 100 µM | KM-20L2 > 100 µM | DMS-273 > 100 µM | XF498 46.5 µM | RXF 631 > 100 µM | DMS-114 45.3 µM

O=C1c2ccccc2-c2c3c(cc4ccnc1c24)OCO3 [LIRIODENINE]
inactive: HOP-18 24.9 µM | M19-MEL 5.86 µM and 3.75 µM | DLD-1 4.49 µM and 4.05 µM | KM-20L2 7.14 µM and 5.82 µM | DMS-273 3.44 µM and 5.46 µM | XF498 5.75 µM and 4.69 µM

O=S(=O)(O)c1cc(O)c2c(O)c(/N=N/c3ccc(/C=C/c4ccc(/N=N/c5c(S(=O)(=O)O)cc6cc(S(=O)(=O)O)cc(O)c6c5O)cc4S(=O)(=O)O)c(S(=O)(=O)O)c3)c(S(=O)(=O)O)cc2c1
inactive: HOP-18 > 100 µM | M19-MEL > 100 µM | DLD-1 > 100 µM | KM-20L2 > 100 µM | DMS-273 > 100 µM | XF498 > 100 µM | DMS-114 56.6 µM
